According to US20130035358A1, “Bis Aromatic Compounds for Use as LTC4 Synthase Inhibitors” (priority 2010, published 2013):
In brackets after ≈: the same amount, converted by molar mass.

What was measured:
[1] = Thermodynamic aqueous solubility in USP phosphate buffer (Example 25); type: physicochemical; conditions: aqueous buffer, thermodynamic from solid; USP phosphate buffer pH 7.4, 24 h at 20° C., LC-MS/MS; read-out: Thermodynamic aq solubility
Protocol: The method described here was developed to accurately determine the aqueous solubility of compounds of the invention in buffer solution at a given pH.
Solid material (1 mg) of test compound is added to a glass vial followed by 1 ml of buffer solution (pH 7.4 if another pH not is stated). The solution is left on an orbital shaker for 24 h at 20° C. After incubation, the remaining solid material is separated from solution and the solubility is quantified using LC-MS/MS.
Prepare 0.2 M monobasic potassium phosphate solution by dissolving 27.22 g of KH2PO4 (MW=136.09 g/mol) in water, dilute with water to 1000 mL.
Add 250 mL of the monobasic potassium phosphate solution in a 1000 mL volumetric flask together with 195.5 mL 0.2M NaOH (aq). Add water to 1000 mL. Check pH.
Compounds of the invention/examples to be tested were provided as solid material, weighed into glass vials (2 mL). Each vial contains approximately 1 mg solid compound, two vials/compound are prepared, i.e. duplicate samples of each compound. If a freshly prepared 10 mM DMSO stock solution was available, this solution was used for MS optimization and preparation of standards. If a DMSO-stock solution was not available, a 10 mM solution from solid material 1 mg was prepared.
• Test compounds are employed as solid material. Since duplicate samples are prepared for each compound, each test compound arrives in two vials (1+1 mg). Samples are denoted as sample 1 and 2. • Note amount of substance in each vial. Add USP phosphate buffer pH 7.4 (1 mL) to each sample vial and seal vials using screw caps. Determine whether the solutions are saturated or if compounds are dissolved, note appearance and time. Start incubation; the samples are incubated on an orbital shaker (450 rpm) at 20° C. for 24 hours.
• Take out the 1 mM DMSO-stock solutions of compounds that are to be tested from freezer. If no 1 mM solutions are available, use master solutions with concentration of 10 mM. Allow the solutions to thaw at rt. • Collect two 96-deep well plates, glass inserts, sealing film, and an 8-channel expandable pipette with tall tips. • Abort shaking after 24 hour. • Note if samples are saturated or if compounds have dissolved. • Transfer 720 μL of sample slurry from each sample vial into glass inserts in a 96-deep well plate using an 8-channel expandable pipette. Samples 1 and 2 are transferred to separate plates. Thus, all samples 1 are placed in one plate and all samples 2 in the second plate. • Seal the plates using sealing film. • Centrifuge the plates at 3000 rpm for 15 min at rt. Set acceleration to 9 and brake to 7 (9=fastest acc/brake, 0=slowest acc/brake). • Transfer the supernatants to new glass inserts using an 8-channel pipette, centrifuge samples a second time. • Repeat the procedure above, i.e. centrifuge samples a third time. • After the third centrifugation, transfer supernatant to glass vials, seal vials with screw caps. Control that the solutions are clear and that no particles are present in sample. If solid material is observed, an additional centrifugation step is performed. • Standards are prepared from DMSO-stock solutions (1 or 10 mM). For each compound, transfer […] 1 mM solution to a glass vial, add DMSO (90 μL) to reach a final concentration of 100 μM, seal with screw cap and mix solution quickly on a vortex mixer. Further dilute the 100 μM solution with a 1:1 mixture of acetonitrile and USP phosphate buffer (pH 7.4) to standards with concentration 1000, 500, 100, 25, 2, and 1 nM. Standards are prepared in test tubes.
• Place standards in autosampler. • Try out the dilution of solubility samples so that their response will be within the standard curve. Dilute solubility sample one (or two) with the 1:1 mixture of acetonitrile:buffer. […]

LTC4 synthase [2] = molecular target: T1, LTC4 synthase (Homo sapiens, UniProt Q16873); experiment: Test 1 in vitro assay: LTC4 synthase converts LTA4 to LTC4, HTRF detection; type: biochemical; design: made in house; host or cells: Pichia pastoris; conditions: Table 2; Test 1 (unless otherwise indicated)
T1 sequence (Q16873 1-150): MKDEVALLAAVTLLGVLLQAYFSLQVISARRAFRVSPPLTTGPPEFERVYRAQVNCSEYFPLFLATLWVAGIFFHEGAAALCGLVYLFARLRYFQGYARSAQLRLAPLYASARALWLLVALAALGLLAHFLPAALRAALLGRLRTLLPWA
Protocol: In the assay, LTC4 synthase catalyses the reaction where the substrate LTA4 is converted to LTC4. Recombinant human LTC4 synthase is expressed in Piccia pastoralis and the purified enzyme is dissolved in 25 mM tris-buffer pH 7.8 supplemented with 0.1 mM glutathione (GSH) and stored at −80° C. The assay is performed in phosphate buffered saline (PBS) pH 7.4 and 5 mM GSH in 384-well plates.
The following is added chronologically to each well:
1. 48 μL LTC4 synthase in PBS with 5 mM GSH. The total protein concentration in this solution is 0.5 μg/mL. 2. 1 μL inhibitor in DMSO (final concentration 10 μM). 3. Incubation of the plate at room temperature for 10 min. 4. 1 μL LTA4 (final concentration 2.5 μM). 5. Incubation of the plate at room temperature for 5 min. 6. 10 μL of the incubation mixture is analysed using homogenous time resolved fluorescent (HTRF) detection.
(§1) IC50 values for title compounds of the examples are depicted in the tables hereinafter (where, they are the values obtained using Test 1, unless otherwise indicated).

LTC4 synthase [3] = molecular target: T1, LTC4 synthase; experiment: Test 2: LTC4 synthase IC50 procedure, ten concentrations, LTC4 HTRF kit; type: biochemical; conditions: Table 2; cells marked (Test 2)
Protocol: For certain compounds, in order to obtain IC50-values for the compounds, following procedure was used: • 1. A volume (24 μL) of 0.25 μg/mL LTC4 synthase in 75 mM tris (pH ˜8.5), 0.5 mM MgCl2 and 3 mM GSH was preincubated for 10 min with 0.5 μL of compound of interest in DMSO at ten different concentrations, typically in the range 10^−9,5-10^−5M as well as with DMSO only. The buffer is used as background. Runs are performed in duplicates. • 2. The enzymatic reaction is initiated by addition of 0.5 μL LTA4 in diglyme (final assay concentration 8 μM). • 3. The reaction is stopped after 1 min by addition of double the reaction volume of a stop solution (MeOH:H2O:acetic acid 70:30:1). • 4. After 15 fold dilution in PBS, LTC4 formation is detected with LTC4 HTRF kit (Cisbio, cat. No 64LC4PEC) and a fluorescence reader. Typically 10 μL of sample is mixed with 5 μL of each of the HTRF reagents d2 and k and analyzed as described in the kit manual.
The detected product concentration, with background subtracted, is plotted versus compound concentration and IC50 is determined as 50% of maximum inhibition.
as §1

SMILES	solubility thermodynamic at 24 h [1]	IC50 (LTC4 synthase [2])	IC50 (LTC4 synthase [3])
CN(c1ccc(Cl)cc1)c1ccc(C(=O)c2ccc(C(=O)C3CC4CCC3C4)c(C(=O)O)c2)nc1 (centres unmarked) [Example 15, 2-(Bicyclo[2.2.1]heptane-2-carbonyl)-5-(5-((4-chlorophenyl)(methyl)amino)-picolinoyl)benzoic acid]	1980 µM (≈ 969 µg/mL)	94 nM	–
CN(c1ccc(Cl)cc1)c1ccc(C(=O)c2ccc(C(=O)CCC3CCCCC3)c(C(=O)O)c2)nc1 [Example 18, 5-(5-((4-Chlorophenyl)(methyl)amino)picolinoyl)-2-(3-cyclohexylpropanoyl)benzoic acid]	37 µM (≈ 18.7 µg/mL)	59 nM	–
CC(=O)c1ccc(C(=O)c2ccc(N(CC3CC3)c3ccc(Cl)cc3)cn2)cc1C(=O)O [Example 22, 2-Acetyl-5-(5-((4-chlorophenyl)(cyclopropylmethyl)amino)picolinoyl)benzoic acid]	1860 µM (≈ 835 µg/mL)	–	307 nM
CCC(=O)c1ccc(C(=O)c2ccc(N(CC3CC3)c3ccc(Cl)cc3)cn2)cc1C(=O)O [Example 23, 5-(5-((4-Chlorophenyl)(cyclopropylmethyl)amino)picolinoyl)-2-propionylbenzoic acid]	–	–	129 nM
O=C(c1ccc(C(=O)C2CC2)c(C(=O)O)c1)c1ccc(N(CC2CC2)c2ccc(Cl)cc2)cn1 [Example 24, 5-(5-((4-Chlorophenyl)(cyclopropylmethyl)amino)picolinoyl)-2-(cyclopropanecarbonyl)benzoic acid]	–	–	424 nM
